{"source": "paper PMC7394103", "about": "(Frontiers in Pharmacology, 2020)", "key": {"[1]": {"system": "CIA in DBA1/J mice", "details": "ref Schepetkin et al., 2015, cited from earlier work"}, "[2]": {"system": "c-Jun phosphorylation in FLS", "parameters": "method as in Schepetkin et al., 2015", "details": "ref Schepetkin et al., 2015; cited from earlier work"}, "[3]": {"parameters": "method as in Schepetkin et al., 2012", "details": "mice, 30 mg/kg i.p., serum; ref Schepetkin et al., 2012; cited from earlier work"}, "[4]": {"parameters": "method as in Plotnikov et al., 2020", "details": "rats, i.p.; ref Plotnikov et al., 2020; cited from earlier work"}, "[5]": {"system": "IL-6 secretion by synovial SW982 cells", "assay": "IL-1β-induced IL-6 secretion by SW982 cells (ELISA)", "type": "cell-based, human", "details": "Homo sapiens, SW982; shorter incubation period (12 h), TRYP absent; read-out: IC50, IL-1β-induced IL-6 secretion by SW982 cells", "method": "FLS, HUVEC, SW982, and THP-1 cells were plated in 96 well plates (10^4 to 10^5 cells/well) for 48 h before treatment. At 2 days post-confluency, the cells were serum-starved and washed twice (with the exception of THP-1 cell, which were not washed) with FBS-free medium prior to the addition of test compounds. […] Culture supernatants were collected and stored at –80°C. The levels of MMP-1 and MMP-3 were determined in culture supernatants using commercially available ELISA kits according to the manufacturer’s instructions (R&D System, Minneapolis, MN, USA). IL-6 levels were also determined in the supernatants using a human IL-6 ELISA kit (BD Biosciences, San Jose, CA, USA)."}}, "note": "Where a name gives a salt, the structure may show the parent alone. Read-outs that look alike come from different tables or passages of the source."}
{"smiles": "ON=C1c2ccccc2-c2nc3ccccc3nc21", "note": "[IQ-1S, 11H-indeno[1,2-b]quinoxalin-11-one oxime salt]", "values": [{"measurement": "reduction of arthritis in the CIA model", "setting": "[1]; 5 mg/kg i.p.", "value": "not very effective"}, {"measurement": "reduction of arthritis in the CIA model", "setting": "[1]; 30 and 50 mg/kg i.p.", "value": "equally effective"}, {"measurement": "c-Jun phosphorylation", "setting": "[2]", "value": "inhibited c-Jun phosphorylation"}, {"measurement": "AUC 0–12 h", "setting": "[3]", "value": 7.4, "unit": "µM·h"}, {"measurement": "half-life in circulation", "setting": "[4]", "value": 12, "unit": "h"}, {"measurement": "time of peak serum concentration", "setting": "[4]", "value": 5, "unit": "min"}]}
{"smiles": "O=C1c2ccccc2-c2nc3ccccc3nc21", "note": "[IQ-18]", "values": [{"measurement": "anti-inflammatory activity or therapeutic effects in CIA", "setting": "[1]; 2012, Schepetkin et al.", "value": "did not have any anti-inflammatory activity or therapeutic effects in CIA"}]}
{"smiles": "Oc1c2ccccc2c2c3c(cccc13)N=N2", "note": "[SP600125, reference compound]", "values": [{"measurement": "IC50", "setting": "[5]", "value": "1.3 ± 0.5", "unit": "µM"}]}
